Target: Mammalian Ste20-like kinase 4 (MST4) (Homo sapiens, UniProt Q9P289)
Type: biochemical

Sequence of Mammalian Ste20-like kinase 4 (MST4) (Q9P289 whole entry): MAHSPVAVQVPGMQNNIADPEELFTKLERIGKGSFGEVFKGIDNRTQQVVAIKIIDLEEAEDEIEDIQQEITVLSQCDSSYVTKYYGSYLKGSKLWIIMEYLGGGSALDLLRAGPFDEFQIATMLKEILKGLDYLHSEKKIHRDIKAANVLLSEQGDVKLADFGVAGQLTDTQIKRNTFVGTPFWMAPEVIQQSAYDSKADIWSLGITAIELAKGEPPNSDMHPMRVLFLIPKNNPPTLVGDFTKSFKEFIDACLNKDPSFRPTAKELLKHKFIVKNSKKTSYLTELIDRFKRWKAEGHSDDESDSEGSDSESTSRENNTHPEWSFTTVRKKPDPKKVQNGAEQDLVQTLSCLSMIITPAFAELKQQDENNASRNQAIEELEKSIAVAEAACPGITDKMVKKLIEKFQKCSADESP

IC50: 6.18 ± 2.2 nM
SMILES: CCS(=O)(=O)Nc1ccc2c(c1)/C(=C(/Nc1ccc(CN3CCCCC3)cc1)c1ccccc1)C(=O)N2 [Hesperadin]

Reference: PMC5820170 (Molecular cancer therapeutics, 2015)
